Results on twelve molecules are retold here after US9522888B2, “Substituted bicyclic compounds” (BRISTOL-MYERS SQUIBB COMPANY, priority 2014, dated 2016).

“Also recorded” adds a separate entry of the source.

In assay [1] the test system is circulating lymphocytes. Kind of assay: Blood Lymphocyte Reduction (BLR) assay in rat. The conditions noted are these: oral; for Percent reduction vs. control at 24 hr post-dose: blood lymphocytes; for lymphocyte reduction: rodent BLR assay, 24 hours post-dose, versus vehicle treated group. The format is in vivo, Lewis rats. Here is the method: (§1) Blood Lymphocyte Reduction (BLR) Assay in Rodent:
(§2) Lewis rats or BALB/c mice were dosed orally with vehicle alone (polyethylene glycol 300, “PEG300”) or with test compounds. Compounds were dosed as a solution or suspension in the vehicle, adjusted to reflect the free amount of test article in the event that salt forms are utilized. Blood was drawn at 24 hr and blood lymphocyte counts were determined on an ADVIA 120 Hematology Analyzer (Siemens Healthcare Diagnostics). The results were measured as a reduction in the percentage of circulating lymphocytes as compared to the vehicle treated group at the time of measurement. The results represent the average results of all animals within each treatment group (n=2-4).

The test system of assay [2] is circulating lymphocytes. Kind of assay: Blood Lymphocyte Reduction (BLR) assay in mouse. The format is in vivo, BALB/c mice. The conditions noted are these: oral; for lymphocyte reduction: mice, 24 hours post dose. The procedure: as §1, §2
Assay [3] has as its system adjuvant-induced arthritis, hind paw volume. Kind of assay: Rat Adjuvant Induced Arthritis Assay (AA). The format is in vivo, Male Lewis rats. The conditions noted are these: Lewis rat; for paw swelling (mL) on day 20, Mean / paw swelling (mL) on day 22, Mean: once daily oral prophylactic; for inhibition of disease progression as measured by reduced paw swelling: prophylactic oral dosing regimen, result in words. The procedure: Rat Adjuvant Induced Arthritis Assay (AA) The rat adjuvant-induced arthritis model is an animal model for human rheumatoid arthritis. Male Lewis rats (150-175 g; Harlan, n=8 treatment group) were immunized at the base of the tail with 100 μl of 10 mg/ml freshly ground Mycobacterium butyricum (Difco Laboratories) in incomplete Freund's adjuvant (sigma). Animals were dosed once daily with the test article (as a solution or suspension in the vehicle) or vehicle alone (polyethylene glycol 300, “PEG300”) starting from the day of immunization. The volumes of their hind paws were measured in a water displacement plethysmometer (Ugo Basile, Italy). The baseline paw measurements were taken before onset of the disease (between day 7 to day 10). […] All procedures involving animals were reviewed and approved by the Institutional Animal Care Use Committee.

In assay [4] the test system is MOG35-55 induced EAE, clinical score. The assay can be described thus: Mouse Experimental Autoimmune Encephalomyelitis Assay (EAE). In kind it is in vivo, C57BL/6 mice. The conditions noted are these: C57Bl/6 mice; for Clinical scores on day 21 (Mean): mouse EAE, prophylactic oral dosing.
The subject of assay [5] is guinea pig myelin basic protein induced EAE, clinical score. The assay can be described thus: Rat Experimental Autoimmune Encephalomyelitis (EAE). The following applies: Lewis rat; for Clinical Score on Day 11 (Mean): rat EAE, prophylactic oral dosing. The format is in vivo, Female Lewis rats. Here is the method: Rat Experimental Autoimmune Encephalomyelitis (EAE):
Female Lewis rats (150-200 g; Harlan) were immunized at the base of the tail with 0.1 ml of a complete Freund's adjuvant emulsion containing 0.5 mg/mL guinea pig myelin basic protein (Genemed Synthesis) and 2 mg/mL Mycobacterium butyricum (Difco). Beginning on Day 7, rats (n=11/group) were scored individually at least 3×/wk according to the following scheme:
Average clinical scores were calculated for each treatment group on each day of assessment.

Setting [6] is: prophylactic oral dosing regimen, result in words.

Turning to `COCCCCCC1CCc2cc([C@@H]3CC[C@](N)(CO)C3)ccc2C1` (single isomer, unassigned) [Example 674], the “Percent reduction vs. control at 24 hr post-dose” value was found to be 30% in the assay with circulating lymphocytes [1] (0.1 mg/kg) and 73% in the assay with circulating lymphocytes [1] (0.3 mg/kg). The molecule further showed a lymphocyte reduction with circulating lymphocytes [1] (0.1 mg/kg) of 30%.

For `COCCCCCC1CCc2cc([C@@H]3CC[C@](N)(CO)C3)ccc2C1` (single isomer, unassigned) [Example 675], in the assay with circulating lymphocytes [1] (0.1 mg/kg), the “Percent reduction vs. control at 24 hr post-dose” value turned out to be 63% and the lymphocyte reduction was determined as 63%.

Take `CCCCCOc1ccc2cc([C@@H]3CC[C@](N)(CO)C3)ccc2c1` [Comparative Compound 703, reference compound]: in the assay with circulating lymphocytes [2] (1.0 mg/kg), the lymphocyte reduction was 52% and the “Mouse Blood Lymphocyte Reduction Assay at 24 hr post-dose Percent reduction vs. control” value is 52%.

For `COCCCCC[C@H]1CCc2cc([C@H]3CC[C@](N)(CO)C3)ccc2C1` [Example 672, ((1R,3S)-1-amino-3-((S)-6-(5-methoxypentyl)-5,6,7,8-tetrahydronaphthalen-2-yl)cyclopentyl)methanol], in the assay on circulating lymphocytes [1] (0.1 mg/kg), the “Percent reduction vs. control at 24 hr post-dose” value was 47%. Moreover, the “paw swelling (mL) on day 20, Mean” value was 2.60 mL in assay [3] (0.1 mg/kg), 1.46 mL in assay [3] (0.3 mg/kg) and 0.17 mL in assay [3] (1.0 mg/kg). The “inhibition of disease progression as measured by reduced paw swelling” value in assay [3] was “showed inhibition of disease progression”.

As to `COCCCCC[C@@H]1CCc2cc([C@H]3CC[C@](N)(CO)C3)ccc2C1` [Example 673, ((1R,3S)-1-amino-3-((R)-6-(5-methoxypentyl)-5,6,7,8-tetrahydronaphthalen-2-yl)cyclopentyl)methanol], the “Percent reduction vs. control at 24 hr post-dose” value in the assay on circulating lymphocytes [1] (0.1 mg/kg) came out at 62%.

Take `COc1cccc(CC[C@H]2CCc3cc([C@H]4CC[C@](N)(CO)C4)ccc3C2)c1` [Example 676, ((1R,3S)-1-amino-3-((S)-6-(3-methoxyphenethyl)-5,6,7,8-tetrahydronaphthalen-2-yl)cyclopentyl) methanol]: the “Percent reduction vs. control at 24 hr post-dose” value in the assay with circulating lymphocytes [1] (0.1 mg/kg) came to 63%.

Regarding `COc1cccc(CC[C@@H]2CCc3cc([C@H]4CC[C@](N)(CO)C4)ccc3C2)c1` [Example 677, ((1R,3S)-1-amino-3-((R)-6-(3-methoxyphenethyl)-5,6,7,8-tetrahydronaphthalen-2-yl)cyclopentyl)methanol], the “Percent reduction vs. control at 24 hr post-dose” value with circulating lymphocytes [1] (0.05 mg/kg) is on record as 49%.

Regarding `CCOCCC[C@H]1CCc2cc([C@H]3CC[C@](N)(CO)C3)ccc2C1` [Example 678, ((1R,3S)-1-amino-3-((R)-6-(3-ethoxypropyl)-5,6,7,8-tetrahydronaphthalen-2-yl)cyclopentyl)methanol], the “Percent reduction vs. control at 24 hr post-dose” value in the assay with circulating lymphocytes [1] (0.1 mg/kg) is 16%; in the assay on circulating lymphocytes [1] (0.3 mg/kg), 53%. In the assay with circulating lymphocytes [1] (0.1 mg/kg), this molecule gave a lymphocyte reduction of 16%.

`CCOCCC[C@@H]1CCc2cc([C@H]3CC[C@](N)(CO)C3)ccc2C1` [Example 679, ((1R,3S)-1-amino-3-((S)-6-(3-ethoxypropyl)-5,6,7,8-tetrahydronaphthalen-2-yl)cyclopentyl)methanol]: the lymphocyte reduction was found to be 59% in the assay with circulating lymphocytes [2] (0.5 mg/kg) and 65% with circulating lymphocytes [1] (0.1 mg/kg). The “Mouse Blood Lymphocyte Reduction Assay at 24 hr post-dose Percent reduction vs. control” value with circulating lymphocytes [2] (0.5 mg/kg) is listed as 59%. Further, in the assay with circulating lymphocytes [1] (0.1 mg/kg), the “Percent reduction vs. control at 24 hr post-dose” value turned out to be 65%. For the same molecule, the “paw swelling (mL) on day 22, Mean” value in assay [3] (0.1 mg/kg) turned out to be 1.55 mL; in assay [3] (0.5 mg/kg) it was 0.36 mL; in assay [3] (2.50 mg/kg), 0.00 mL. Besides, in assay [3], the “inhibition of disease progression as measured by reduced paw swelling” value is recorded as “showed inhibition of disease progression”. Moreover, the “inhibition of disease progression as measured by clinical scores” value in assay [4] (setting [6]) is recorded as “showed inhibition of disease progression; also recorded: inhibit disease progression”. For the same molecule, the “Clinical scores on day 21 (Mean)” value in assay [4] (0.6 mg/kg) is listed as 2.9; in assay [4] (3 mg/kg), 1.8; in assay [4] (15 mg/kg) it was 1.3. The “inhibition of disease progression as measured by reduced clinical scores” value in assay [5] (setting [6]) was “showed inhibition of disease progression”. Besides, the “Clinical Score on Day 11 (Mean)” value came out at 0.36 in assay [5] (0.3 mg/kg), 0.09 in assay [5] (1.0 mg/kg) and 0.02 in assay [5] (3.0 mg/kg).

Turning to `COc1ccccc1CC[C@H]1CCc2cc([C@H]3CC[C@](N)(CO)C3)ccc2C1` [Example 682, ((1R,3S)-1-amino-3-((R)-6-(2-methoxyphenethyl)-5,6,7,8-tetrahydronaphthalen-2-yl)cyclopentyl)methanol], in the assay on circulating lymphocytes [1] (0.1 mg/kg), the “Percent reduction vs. control at 24 hr post-dose” value is listed as 17% and the lymphocyte reduction worked out at 17%. In the assay on circulating lymphocytes [1] (2.0 mg/kg), the “Percent reduction vs. control at 24 hr post-dose” value is recorded as 83%.

Take `COc1cccc(OC[C@@H]2CCc3cc([C@H]4CC[C@](N)(CO)C4)ccc3C2)c1` [Example 684, ((1R,3S)-1-amino-3-((R)-6-((3-methoxyphenoxy)methyl)-5,6,7,8-tetrahydronaphthalen-2-yl)cyclopentyl)methanol]: in the assay with circulating lymphocytes [2] (0.5 mg/kg), the lymphocyte reduction was 79% and the “Mouse Blood Lymphocyte Reduction Assay at 24 hr post-dose Percent reduction vs. control” value is 79%. For the same molecule, the “Percent reduction vs. control at 24 hr post-dose” value in the assay on circulating lymphocytes [1] (0.05 mg/kg) is listed as 72%.

`COc1cccc(OC[C@H]2CCc3cc([C@H]4CC[C@](N)(CO)C4)ccc3C2)c1` [Example 685, ((1R,3S)-1-amino-3-((S)-6-((3-methoxyphenoxy)methyl)-5,6,7,8-tetrahydronaphthalen-2-yl)cyclopentyl)methanol]: the “Percent reduction vs. control at 24 hr post-dose” value in the assay with circulating lymphocytes [1] (0.1 mg/kg) came to 55%.
